Reference: ChEMBL document CHEMBL1201862, “PubChem BioAssay data set” (2004)
Blank lines part the entries; values can stand above or below the compound they belong to. Activity calls are given as the source filed them.

Key:
Estrogen receptor beta [1] = biological target: T1, Estrogen receptor beta (Homo sapiens, UniProt Q92731);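 note: recombinant ER-beta bound to coactivator SRC1 peptide in presence of estradiol agonist; inhibitors block coactivator peptide binding and lower the FRET signal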
[2] = biological target: T2, DNA repair protein RAD52 homolog (Homo sapiens, UniProt P43351); format: functional, biochemical
T2 sequence (P43351 whole entry): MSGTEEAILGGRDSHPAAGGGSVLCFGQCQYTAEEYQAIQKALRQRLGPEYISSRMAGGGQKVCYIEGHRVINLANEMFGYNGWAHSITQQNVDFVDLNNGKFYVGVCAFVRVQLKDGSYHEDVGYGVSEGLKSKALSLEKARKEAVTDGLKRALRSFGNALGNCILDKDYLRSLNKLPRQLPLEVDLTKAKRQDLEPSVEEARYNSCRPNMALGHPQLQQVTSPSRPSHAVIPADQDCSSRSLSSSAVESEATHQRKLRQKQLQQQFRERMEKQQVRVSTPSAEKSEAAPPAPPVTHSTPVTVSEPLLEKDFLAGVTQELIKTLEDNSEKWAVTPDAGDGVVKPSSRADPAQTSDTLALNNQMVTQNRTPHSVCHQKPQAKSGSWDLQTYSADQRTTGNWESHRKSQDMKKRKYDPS

[3] = biological target: E3 ubiquitin-protein ligase UHRF1 (Homo sapiens, UniProt Q96T88); test: Counterscreen for inhibitors of 5-meCpG-binding domain protein 2 (MBD2): TRFRET-based biochemical high throughput dose response assay to identify inhibitors of binding of ubiquitin-like with PHD and ring finger domains 1 (UHRF1) to methylated oligonucleotide.
[4] = biological target: T3, Potassium channel subfamily K member 9 (Homo sapiens, UniProt Q9NPC2); test: KCNK9 flux blockade, concentration-response – cell-based, FluxOR thallium flux, selectivity assay for TASK1 inhibitor project, SAR follow-up (AID 652211); format: functional;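 note: potency is for inhibitors of the channel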
[5] = biological target: Potassium channel subfamily K member 3 (Rattus norvegicus, UniProt O54912); test: SAR analysis for the identification of selective inhibitors of the two-pore domain potassium channel TASK1(KCNK3):Automated Electrophysiology.; format: functional
[6] = biological target: T3, Potassium channel subfamily K member 9; test: TASK3 channel blockers, electrophysiology – cell-based, automated electrophysiology, selectivity assay for TASK1 (KCNK3) inhibitor project, SAR follow-up (AID 652210); format: functional
Prothrombin = Prothrombin (Homo sapiens, UniProt P00734); test: Thrombin 1536 HTS Dose Response Confirmation. [Related pubchem assays: 1046 (Thrombin 1536 HTS; hits were confirmed in this assay)]; format: functional
[7] = Potency on glucagon-like peptide 1 release, dose-response in NCI-H716 cell line, half maximal inhibitory concentration (AID 1117344); format: functional, cell-based
[8] = glucagon-like peptide-1 release potency in STC-1, concentration-response, half-maximal inhibitory concentration in the STC-1 line (AID 1117345); format: functional, cell-based
[9] = Luminescence Cell-Based Dose Confirmation HTS to Identify Inhibitors of Polyadenylation.; format: functional
Estrogen receptor beta [10] = biological target: T1, Estrogen receptor beta; test: blockers of SRC-3 recruitment to ERβ – biochemical, ELISA, streptavidin-HRP readout, orthogonal assay, confirmation (AID 1060)

T1 sequence (Q92731 whole entry): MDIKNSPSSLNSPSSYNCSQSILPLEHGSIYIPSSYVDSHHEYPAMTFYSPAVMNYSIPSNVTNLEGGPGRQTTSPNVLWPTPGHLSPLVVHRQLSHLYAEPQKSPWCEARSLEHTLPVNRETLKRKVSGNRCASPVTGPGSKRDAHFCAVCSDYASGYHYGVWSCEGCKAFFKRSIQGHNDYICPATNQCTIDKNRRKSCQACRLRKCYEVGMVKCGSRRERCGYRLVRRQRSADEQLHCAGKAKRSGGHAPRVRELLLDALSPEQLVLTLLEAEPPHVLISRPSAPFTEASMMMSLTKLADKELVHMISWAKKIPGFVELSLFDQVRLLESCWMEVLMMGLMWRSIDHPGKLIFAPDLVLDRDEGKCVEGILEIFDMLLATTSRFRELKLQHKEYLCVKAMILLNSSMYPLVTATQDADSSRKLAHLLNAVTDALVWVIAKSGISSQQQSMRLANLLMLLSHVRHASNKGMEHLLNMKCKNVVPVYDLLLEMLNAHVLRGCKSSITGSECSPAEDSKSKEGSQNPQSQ
T3 sequence (Q9NPC2 whole entry, the tested form may be a part): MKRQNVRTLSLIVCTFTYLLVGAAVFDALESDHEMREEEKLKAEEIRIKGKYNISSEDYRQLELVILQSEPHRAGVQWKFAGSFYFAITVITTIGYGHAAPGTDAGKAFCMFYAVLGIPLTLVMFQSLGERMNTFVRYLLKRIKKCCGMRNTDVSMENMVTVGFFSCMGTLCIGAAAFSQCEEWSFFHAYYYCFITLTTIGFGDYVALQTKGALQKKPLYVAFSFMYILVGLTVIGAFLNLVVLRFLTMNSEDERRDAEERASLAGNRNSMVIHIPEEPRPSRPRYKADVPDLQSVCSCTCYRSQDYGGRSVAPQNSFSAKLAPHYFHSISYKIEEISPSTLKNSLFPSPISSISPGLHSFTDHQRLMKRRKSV
Sequence of E3 ubiquitin-protein ligase UHRF1 (Q96T88 whole entry, the tested form may be a part): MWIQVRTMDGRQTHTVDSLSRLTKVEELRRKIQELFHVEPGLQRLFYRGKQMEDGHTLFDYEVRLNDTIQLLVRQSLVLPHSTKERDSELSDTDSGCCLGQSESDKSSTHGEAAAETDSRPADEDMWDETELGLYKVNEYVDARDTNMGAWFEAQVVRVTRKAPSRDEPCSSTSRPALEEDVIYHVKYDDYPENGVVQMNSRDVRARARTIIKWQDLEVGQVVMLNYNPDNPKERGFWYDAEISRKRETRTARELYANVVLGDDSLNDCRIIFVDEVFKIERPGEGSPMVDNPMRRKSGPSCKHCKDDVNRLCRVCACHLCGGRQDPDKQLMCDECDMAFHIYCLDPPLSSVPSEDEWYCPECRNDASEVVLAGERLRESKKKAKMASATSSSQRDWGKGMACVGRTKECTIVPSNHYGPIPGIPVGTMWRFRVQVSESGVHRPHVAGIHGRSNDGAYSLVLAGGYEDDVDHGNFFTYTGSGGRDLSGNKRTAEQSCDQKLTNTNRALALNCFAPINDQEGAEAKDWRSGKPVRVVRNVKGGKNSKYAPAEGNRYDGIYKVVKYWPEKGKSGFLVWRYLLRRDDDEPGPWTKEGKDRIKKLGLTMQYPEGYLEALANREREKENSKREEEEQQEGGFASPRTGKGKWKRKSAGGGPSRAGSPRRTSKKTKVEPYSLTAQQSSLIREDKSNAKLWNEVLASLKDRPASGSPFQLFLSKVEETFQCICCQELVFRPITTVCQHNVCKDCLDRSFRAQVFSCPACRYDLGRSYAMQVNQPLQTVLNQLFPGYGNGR
Sequence of Potassium channel subfamily K member 3 (O54912 whole entry, the tested form may be a part): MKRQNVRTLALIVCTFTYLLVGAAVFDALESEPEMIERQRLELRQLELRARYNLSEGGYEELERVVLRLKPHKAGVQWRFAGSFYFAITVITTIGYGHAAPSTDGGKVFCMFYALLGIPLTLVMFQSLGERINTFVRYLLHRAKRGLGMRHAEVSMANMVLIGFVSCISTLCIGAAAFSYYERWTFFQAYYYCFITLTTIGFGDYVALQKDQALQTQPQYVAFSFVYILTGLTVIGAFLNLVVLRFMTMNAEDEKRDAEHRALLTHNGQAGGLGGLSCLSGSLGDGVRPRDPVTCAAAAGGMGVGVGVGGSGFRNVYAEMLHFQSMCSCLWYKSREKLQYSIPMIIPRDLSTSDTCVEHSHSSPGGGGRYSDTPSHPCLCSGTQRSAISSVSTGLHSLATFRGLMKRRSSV

SMILES: CN(C)CCNC(=O)c1cccc2[nH]c(-c3ccncc3)nc12
- AC50 [2]: 10 µM (active)
- IC50 [3]: 10.6 µM (inactive)

SMILES: COc1cccc(C(=O)Nc2cccc(NC(=O)c3ccccc3)c2)c1
- IC50 [4]: 25.9 µM (active)
- IC50 [5]: 0.61 µM (active)
- IC50 [6]: 0.42 µM (active)

SMILES: Cc1ccc(NC(=O)c2ccc(OC(=O)COc3cccc(Cl)c3)cc2)cc1
- IC50 (Prothrombin): 0.596 µM (active)

SMILES: CC1=C(C(=O)OC(C)C)C(c2cccc([N+](=O)[O-])c2)C(C(=O)OC2CN(C(c3ccccc3)c3ccccc3)C2)=C(N)N1 (configuration not stated) [AZELNIDIPINE]
- IC50 [7]: 12.8 µM (inactive)
- IC50 [8]: 1.23 µM (active)

SMILES: Cc1cc2c(cc1S(=O)(=O)N(C)c1ccccc1)n(C)c(=O)n2C
- EC50 [9]: > 120 µM (not active)

Other lines, results leading:

- IC50 (Estrogen receptor beta [1]): > 50 µM (not active)
SMILES: Cc1cccc(NC(=O)C2CCN(S(=O)(=O)c3c(C)nn(C)c3C)CC2)n1

- IC50 (Estrogen receptor beta [1]): 27.1 µM (active)
- IC50 (Estrogen receptor beta [10]): 0.0611 µM (not active)
SMILES: Cc1nn(-c2ccccc2)c(C)c1NC(=O)Cc1cccs1
